Laboratory results published in patent US7423044B2, “Pyrimidine derivatives useful in the treatment of insulin resistance and hyperglycemia” (Wyeth, priority 2002, dated 2008).

Biological target: T1, PTP-1B (Homo sapiens, UniProt P18031)
T1 sequence (P18031 1-435): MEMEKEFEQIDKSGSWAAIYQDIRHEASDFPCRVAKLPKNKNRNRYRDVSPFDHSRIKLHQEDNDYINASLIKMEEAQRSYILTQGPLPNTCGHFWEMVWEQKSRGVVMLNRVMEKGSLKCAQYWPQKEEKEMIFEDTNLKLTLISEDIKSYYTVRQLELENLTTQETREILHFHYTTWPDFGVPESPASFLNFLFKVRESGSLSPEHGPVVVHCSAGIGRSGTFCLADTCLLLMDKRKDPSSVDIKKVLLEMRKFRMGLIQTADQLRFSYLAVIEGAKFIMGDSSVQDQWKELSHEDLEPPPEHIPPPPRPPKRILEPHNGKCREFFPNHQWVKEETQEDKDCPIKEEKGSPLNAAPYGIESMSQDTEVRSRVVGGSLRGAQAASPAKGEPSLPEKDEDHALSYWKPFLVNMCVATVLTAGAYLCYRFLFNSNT
Assay: PTPase inhibition assay (DIFMUP fluorescence kinetic assay)
Format: biochemical
Conditions: 20 μM DIFMUP, 1 nM enzyme; for inhibition at 40 µM: inhibitor at 40 μM, from average velocity (Va); for Ki: apparent final potency from steady-state velocity (Vs), read-out: Kiapp
Method: Measurement of PTPase activity: The present compounds are assayed in an enzyme activity-based assay. PTP-1B is known to dephosphorylate phospho-peptides. This assay is a fluorescence intensity based kinetic assay, taking advantage of a non-peptidyl substrate, 6,8-difluoro-4-methylumbelliferyl phosphate (DIFMUP). When excited at 358 nm, the dephosphorylated product of DIFMUP emits at 450 nm.
The compounds of Examples 1-22 were analyzed as follows. The assay was conducted in black 384-well non-treated plates (Costar#3710). The assay buffer contained 50 mM 3,3-dimethyl glutaric acid, pH 7.0, 48 mM NaCl, 1 mM EDTA. Inhibitors were prepared as DMSO solution and diluted to desired concentrations using 50 mM HEPES, pH 7.4. PTP-1B was diluted to a 2.5 nM working stock using the assay buffer containing additional 0.001% (w/v) hydrogenated Triton X-100. DIFMUP was diluted to 40 μM using the assay buffer. 5 μl of inhibitor was first dispensed into assay plate. In cases of control reactions, […] of the assay buffer was dispensed. This was followed by 25 μl of DIFMUP working stock. The reaction was then initiated by the addition of 20 μl of PTP-1B working stock. The final DIFMUP concentration was 20 μM (˜1.6×Km). The final enzyme concentration was 1 nM and the detergent concentration was 0.0004% (w/v). Typical inhibitor concentrations were from 0.08 to 40 μM. The reaction progress was monitored continuously for 30 min.
Calculations: For data analysis, the last five data points were used to obtain a slope corresponding to the estimated steady-state velocity (Vs), and the overall progress curves were used to obtain the average velocity (Va), by linear regression in both cases. The apparent final potency of inhibitor (Kiapp) was then calculated from Vs data, using the standard hyperbolic inhibition equation. The IC50 values were calculated from Va data using the sigmoidal inhibition equation. % Inhibition values were calculated from Va values of inhibitor at 40 μM, and the average Va value of control reactions.

## FC(F)(F)c1ccc(COc2nc(-c3cc(Cl)cc(Cl)c3)nc3c2CN(Cc2ccccc2)CC3)cc1 [Example 16, 6-Benzyl-2-(3,5-dichlorophenyl)-4-{[4-(trifluoromethyl)benzyl]oxy}-5,6,7,8-tetrahydropyrido[4,3-d]pyrimidine]
  inhibition at 40 µM: 52%

## Fc1ccc(COc2cc(-c3ccccc3)nc(-c3ccncc3)n2)cc1 [Example 3, 4-[(4-Fluorobenzyl)oxy]-6-phenyl-2-pyridin-4-ylpyrimidine]
  inhibition at 40 µM: 11%

## O=[N+]([O-])c1cccc(-c2nc3c(c(OCc4ccc(C(F)(F)F)cc4)n2)CN(Cc2ccccc2)CC3)c1 [Example 18, 6-Benzyl-2-(3-nitrophenyl)-4-{[4-(trifluoromethyl)benzyl]oxy}-5,6,7,8-tetrahydropyrido[4,3-d]pyrimidine]
  inhibition at 40 µM: 51%

## Fc1ccc(COc2cc(-c3ccccc3)nc(-c3ccc(Cl)cc3)n2)cc1 [Example 5, 2-(4-Chlorophenyl)-4-[(4-fluorobenzyl)oxy]-6-phenylpyrimidine]
  inhibition at 40 µM: 11%

## CC(C)c1cc(OCc2ccc(C(=O)O)cc2)nc(-c2cccc([N+](=O)[O-])c2)n1 [Example 21, 4-({[6-Isopropyl-2-(3-nitrophenyl)pyrimidin-4-yl]oxy}methyl)benzoic acid]
  inhibition at 40 µM: 101%

## CC(C)c1cc(OCc2ccc(F)cc2)nc(-c2cc(Cl)cc(Cl)c2)n1 [Example 8, 2-(3,5-Dichlorophenyl)-4-[(4-fluorobenzyl)oxy]-6-isopropylpyrimidine]
  inhibition at 40 µM: 48%

## O=C(O)c1ccc(COc2nc(-c3cc(Cl)cc(Cl)c3)nc3c2CN(Cc2ccccc2)CC3)cc1 [Example 20, 4-({[6-Benzyl-2-(3,5-dichlorophenyl)-5,6,7,8-tetrahydropyrido[4,3-d]pyrimidin-4-yl]oxy}methyl)benzoic acid]
  inhibition at 40 µM: 100%

## Fc1ccc(COc2nc(-c3cc(Cl)cc(Cl)c3)nc3c2CN(Cc2ccccc2)CC3)cc1 [Example 9, 6-Benzyl-2-(3,5-dichlorophenyl)-4-[(4-fluorobenzyl)oxy]-5,6,7,8-tetrahydropyrido[4,3-d]pyrimidine]
  inhibition at 40 µM: 55%

## O=C(O)c1ccc(COc2cc(-c3ccccc3)nc(-c3ccccc3)n2)cc1 [Example 7, 4-{[(2,6-Diphenylpyrimidin-4-yl)oxy]methyl}benzoic acid]
  Ki: 2.97 µM
  inhibition at 40 µM: 99%

## O=C(O)c1ccc(COc2nc(-c3cccc([N+](=O)[O-])c3)nc3c2CN(Cc2ccccc2)CC3)cc1 [Example 22, 4-({[6-Benzyl-2-(3-nitrophenyl)-5,6,7,8-tetrahydropyrido[4,3-d]pyrimidin-4-yl]oxy}methyl)benzoic acid]
  inhibition at 40 µM: 93%

## Fc1ccc(COc2nc(-c3ccccc3)nc3c2CCC3)cc1 [Example 4, 4-[(4-Fluorobenzyl)oxy]-2-phenyl-6,7-dihydro-5H-cyclopenta[d]pyrimidine]
  inhibition at 40 µM: 12%

## N#Cc1ccc(COc2nc(-c3cccc([N+](=O)[O-])c3)nc3c2CN(Cc2ccccc2)CC3)cc1 [Example 14, 4-({[6-Benzyl-2-(3-nitrophenyl)-5,6,7,8-tetrahydropyrido[4,3-d]pyrimidin-4-yl]oxy}methyl)benzonitrile]
  inhibition at 40 µM: 64%

## CC(C)c1cc(OCc2ccc(F)cc2)nc(-c2cccc([N+](=O)[O-])c2)n1 [Example 10, 4-[(4-Fluorobenzyl)oxy]-6-isopropyl-2-(3-nitrophenyl)pyrimidine]
  inhibition at 40 µM: 56%

## CC(C)c1cc(OCc2ccc(C#N)cc2)nc(-c2cc(Cl)cc(Cl)c2)n1 [Example 11, 4-({[2-(3,5-Dichlorophenyl)-6-isopropylpyrimidin-4-yl]oxy}methyl)benzonitrile]
  inhibition at 40 µM: 34%

## CC(C)c1cc(OCc2ccc(C(F)(F)F)cc2)nc(-c2cc(Cl)cc(Cl)c2)n1 [Example 15, 2-(3,5-Dichlorophenyl)-4-isopropyl-6-{[4-(trifluoromethyl)benzyl]oxy} pyrimidine]
  inhibition at 40 µM: 57%

## N#Cc1ccc(COc2nc(-c3cc(Cl)cc(Cl)c3)nc3c2CN(Cc2ccccc2)CC3)cc1 [Example 12, 4-({[6-Benzyl-2-(3,5-dichlorophenyl)-5,6,7,8-tetrahydropyrido[4,3-d]pyrimidin-4-yl]oxy}methyl)benzonitrile]
  inhibition at 40 µM: 54%

## CC(C)c1cc(OCc2ccc(C(=O)O)cc2)nc(-c2cc(Cl)cc(Cl)c2)n1 [Example 19, 4-({[2-(3,5-Dichlorophenyl)-6-isopropylpyrimidin-4-yl]oxy}methyl)benzoic acid]
  inhibition at 40 µM: 101%

## O=C(O)c1ccc(COc2cc(-c3ccccc3)nc(-c3ccc(Cl)cc3)n2)cc1 [Example 1, 4-({[2-(4-Chlorophenyl)-6-phenylpyrimidin-4-yl]oxy}methyl)benzoic acid]
  Ki: 1.67 µM
  inhibition at 40 µM: 100%

## CC(C)c1cc(OCc2ccc(C(F)(F)F)cc2)nc(-c2cccc([N+](=O)[O-])c2)n1 [Example 17, 4-Isopropyl-2-(3-nitrophenyl)-6-{[4-(trifluoromethyl)benzyl]oxy} pyrimidine]
  inhibition at 40 µM: 49%

## CC(C)c1cc(OCc2ccc(C#N)cc2)nc(-c2cccc([N+](=O)[O-])c2)n1 [Example 13, 4-({[6-isopropyl-2-(3-nitrophenyl)pyrimidin-4-yl]oxy}methyl)benzonitrile]
  inhibition at 40 µM: 55%

## O=C(O)c1ccc(COc2cc(-c3ccccc3)nc(-c3ccncc3)n2)cc1 [Example 6, 4-{[(6-Phenyl-2-pyridin-4-ylpyrimidin-4-yl)oxy]methyl}benzoic acid]
  Ki: 7.21 µM
  inhibition at 40 µM: 56%

## Fc1ccc(COc2nc(-c3ccc(Cl)cc3)nc3c2CCC3)cc1 [Example 2, 2-(4-Chlorophenyl)-4-[(4-fluorobenzyl)oxy]-6,7-dihydro-5H-cyclopenta[d]pyrimidine]
  inhibition at 40 µM: 10%
